{
  "source": "patent US9131698B2",
  "about": "“Biocidal compositions and methods of use” (Dow Global Technologies LLC, priority 2011, dated 2015)",
  "type_in_all_cases": "cell-based",
  "key": {"[1]": {"tested_on": "Pseudomonas aeruginosa ATCC 10145 and Staphylococcus aureus ATCC 6538", "assay": "Biocidal efficacy against aerobic bacteria, 24 hours, minimum concentration for 99.9% bacterial kill", "details": "37° C.", "protocol": "(§1) The synergy indexes reported in the following examples are calculated using the following equation: Synergy Index=Ca/CA+Cb/CB\n(§2) Ca: Concentration of biocide A required to achieve a certain level of bacterial kill when used in combination with B\n(§3) CA: Concentration of biocide A required to achieve a certain level of bacterial kill when used alone\n(§4) Cb: Concentration of biocide B required to achieve a certain level of bacterial kill when used in combination with A\n(§5) CB: Concentration of biocide B required to achieve a certain level of bacterial kill when used alone.\n(§6) A synergy index (SI) of 1 indicates additivity, a synergy index of less than 1 indicates synergy, and a synergy index greater than 1 indicates antagonism.\n(§7) Synergy Index is then calculated."}, "[2]": {"tested_on": "Biofilms of Desulfovibrio longus ATCC 51456", "assay": "Biofilm removal, Calgary Biofilm Device, crystal violet staining", "details": "2 hours treatment", "protocol": "Biofilms of Desulfovibrio longus ATCC 51456 are grown in a Calgary Biofilm Device (Innovotech, Alberta, Canada) at 35° C. and under anaerobic conditions for 72 hours with shaking (125 rpm). Modified Baar's Medium (ATCC #1249 Broth) is used as culture medium and the medium is changed after 48 hrs of incubation. […] After biocide treatment, the pegs are rinsed again with deoxygenated sterile 0.85% NaCl solution and then the total biofilm left on each peg is measured according to the following description. The biofilm is fixed with 99% methanol and, after air drying, the pegs are stained with 2% (w/v) crystal violet and washed with tap water. The pegs are then air dried and the crystal violet bound to the biofilm is extracted with 33% glacial acetic acid. The total remaining biofilm is determined by the optical density (OD) of the extracted solution at 580 nm."}, "[3]": {"tested_on": "Desulfovibrio longus ATCC 51456", "assay": "Biocidal efficacy against SRB, 2 hour treatment time", "protocol": "as §1, §2, §3, §4, §5, §6\n(§8) Inside an anaerobic chamber (Bactron anaerobic chamber), a deoxygenated sterile salt solution (3.1183 g of NaCl, 1.3082 mg of NaHCO3, 47.70 mg of KCl, 72.00 mg of CaCl2, 54.49 mg of MgSO4, 172.28 mg of Na2SO4, 43.92 mg of Na2CO3 in 1 L water) is inoculated with Desulfovibrio longus ATCC 51456 to a final bacterial concentration of 10^6 to 10^7 CFU/mL."}, "[4]": {"tested_on": "Pseudomonas aeruginosa ATCC 10145 and Staphylococcus aureus ATCC 6538", "assay": "Biocidal efficacy against aerobic bacteria, 2 hr, minimum concentration for complete bacterial kill", "details": "37° C.", "protocol": "as §1, §2, §3, §4, §5, §6, §7"}, "[5]": {"tested_on": "Desulfovibrio longus ATCC 51456", "assay": "Biocidal efficacy against anaerobic bacteria, 24 hours, minimum concentration for 99.999% bacterial reduction", "details": "35° C.", "protocol": "as §1, §2, §3, §4, §5, §6, §8"}, "[6]": {"details": "PHMB part of minimum concentration"}, "[7]": {"details": "THPS part of minimum concentration"}},
  "data": [
    {"substance": "tetrakis (hydroxymethyl) phosphonium sulfate [THPS]", "values": [
      {"measurement": "Concentration (ppm a.i.) for 99.9% bacterial kill, PHMB", "setting": "[1]; [6]", "value": 0.0, "unit": "ppm a.i."},
      {"measurement": "Concentration (ppm a.i.) for 99.9% bacterial kill, THPS", "setting": "[1]; [7]", "value": 19.8, "unit": "ppm a.i."},
      {"measurement": "Remaining biofilm, OD580 (optical density of biofilm captured crystal violet)", "setting": "[2]; 50 ppm active", "value": 0.59},
      {"measurement": "Remaining biofilm, OD580 (optical density of biofilm captured crystal violet)", "setting": "[2]; 200 ppm active", "value": 1.03},
      {"measurement": "Concentration (ppm a.i.) for complete SRB kill, PHMB", "setting": "[3]; [6]", "value": 0.0, "unit": "ppm a.i."},
      {"measurement": "Concentration (ppm a.i.) for complete SRB kill, THPS", "setting": "[3]; [7]", "value": 22.2, "unit": "ppm a.i."},
      {"measurement": "Concentration (ppm a.i.) for aerobic bacteria kill, PHMB", "setting": "[4]; PHMB part of minimum concentration for complete bacterial kill", "value": 0, "unit": "ppm a.i."},
      {"measurement": "Concentration (ppm a.i.) for aerobic bacteria kill, THPS", "setting": "[4]; THPS part of minimum concentration for complete bacterial kill", "value": 50, "unit": "ppm a.i."},
      {"measurement": "Concentration (ppm a.i.) for anaerobic bacteria kill, PHMB", "setting": "[5]; PHMB part of minimum tested concentration for 99.999% bacterial reduction", "value": 0.0, "unit": "ppm a.i."},
      {"measurement": "Concentration (ppm a.i.) for anaerobic bacteria kill, THPS", "setting": "[5]; THPS part of minimum tested concentration for 99.999% bacterial reduction", "value": 8.8, "unit": "ppm a.i."}
    ]}
  ]
}
